Measurements from PubChem BioAssay (NCI).
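A five-concentration, 48-hour dose response in 96-well plates underlies each endpoint, interpolated linearly between surrounding concentrations. TGI: concentration producing complete growth inhibition.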

Assays:
Test in all cases: growth of human tumour cells (NCI), 48 h
U251 CNS = system: U251 CNS
786-0 renal = system: 786-0 renal
OVCAR-5 ovarian = system: OVCAR-5 ovarian
T-47D breast = system: T-47D breast
DU-145 prostate = system: DU-145 prostate
SK-MEL-28 melanoma = system: SK-MEL-28 melanoma
SNB-19 CNS = system: SNB-19 CNS
SNB-75 CNS = system: SNB-75 CNS
UACC-62 melanoma = system: UACC-62 melanoma
SF-295 CNS = system: SF-295 CNS
K-562 leukemia = system: K-562 leukemia
HOP-62 NSCLC = system: HOP-62 NSCLC
HCT-15 colon = system: HCT-15 colon
MDA-MB-435 = system: MDA-MB-435
HL-60(TB) leukemia = system: HL-60(TB) leukemia
HCT-116 colon = system: HCT-116 colon
LOX IMVI melanoma = system: LOX IMVI melanoma
SK-OV-3 ovarian = system: SK-OV-3 ovarian
HOP-92 NSCLC = system: HOP-92 NSCLC
SN12C renal = system: SN12C renal
SF-539 CNS = system: SF-539 CNS
HT29 colon = system: HT29 colon
IGROV1 ovarian = system: IGROV1 ovarian
MCF7 breast = system: MCF7 breast
UACC-257 melanoma = system: UACC-257 melanoma
UO-31 renal = system: UO-31 renal
SK-MEL-2 melanoma = system: SK-MEL-2 melanoma
MOLT-4 leukemia = system: MOLT-4 leukemia
SK-MEL-5 melanoma = system: SK-MEL-5 melanoma
A549 NSCLC = system: A549 NSCLC
CCRF-CEM leukemia = system: CCRF-CEM leukemia
SF-268 CNS = system: SF-268 CNS
NCI-H460 lung = system: NCI-H460 lung
A498 renal = system: A498 renal
OVCAR-8 ovarian = system: OVCAR-8 ovarian
SW-620 colon = system: SW-620 colon
OVCAR-3 ovarian = system: OVCAR-3 ovarian
COLO 205 colon = system: COLO 205 colon
HS 578T breast = system: HS 578T breast
SR leukemia = system: SR leukemia
EKVX NSCLC = system: EKVX NSCLC
BT-549 breast = system: BT-549 breast
TK-10 renal = system: TK-10 renal
HCC-2998 colon = system: HCC-2998 colon
RXF 393 renal = system: RXF 393 renal
ACHN renal = system: ACHN renal
MDA-MB-231 breast = system: MDA-MB-231 breast
NCI/ADR-RES ovarian = system: NCI/ADR-RES ovarian
MDA-N = system: MDA-N
RPMI-8226 leukemia = system: RPMI-8226 leukemia
OVCAR-4 ovarian = system: OVCAR-4 ovarian
KM12 colon = system: KM12 colon
CAKI-1 renal = system: CAKI-1 renal
PC-3 prostate = system: PC-3 prostate
NCI-H23 lung = system: NCI-H23 lung
NCI-H226 lung = system: NCI-H226 lung
M14 melanoma = system: M14 melanoma
MALME-3M melanoma = system: MALME-3M melanoma
NCI-H522 lung = system: NCI-H522 lung

Cn1c(-c2ccccc2)cc(-c2ccsc2)c1-c1ccsc1 showed a TGI (U251 CNS) of over 100 µM, a TGI (786-0 renal) of over 100 µM and a TGI (OVCAR-5 ovarian) of over 100 µM. It also gave a TGI (T-47D breast) of over 100 µM, a TGI (DU-145 prostate) of over 100 µM and a TGI (SK-MEL-28 melanoma) of over 100 µM. The TGI (SNB-19 CNS) was over 100 µM, the TGI (SNB-75 CNS) was over 100 µM and the TGI (UACC-62 melanoma) was over 100 µM. The TGI (SF-295 CNS) was over 100 µM, the TGI (K-562 leukemia) was over 100 µM and the TGI (HOP-62 NSCLC) was over 100 µM. For the same compound, the TGI (HCT-15 colon) was over 100 µM, the TGI (MDA-MB-435) was over 100 µM and the TGI (HL-60(TB) leukemia) was over 100 µM. The TGI (HCT-116 colon) was over 100 µM, the TGI (LOX IMVI melanoma) was over 100 µM and the TGI (SK-OV-3 ovarian) was over 100 µM. The TGI (HOP-92 NSCLC) was over 100 µM, the TGI (SN12C renal) was over 100 µM and the TGI (SF-539 CNS) was over 100 µM. The TGI (HT29 colon) was over 100 µM, the TGI (IGROV1 ovarian) was over 100 µM and the TGI (MCF7 breast) was over 100 µM. It also gave a TGI (UACC-257 melanoma) of over 100 µM, a TGI (UO-31 renal) of over 100 µM and a TGI (SK-MEL-2 melanoma) of over 100 µM. It also gave a TGI (MOLT-4 leukemia) of over 100 µM, a TGI (SK-MEL-5 melanoma) of over 100 µM and a TGI (A549 NSCLC) of over 100 µM. The TGI (CCRF-CEM leukemia) was over 100 µM, the TGI (SF-268 CNS) was over 100 µM and the TGI (NCI-H460 lung) was over 100 µM. The TGI (A498 renal) was over 100 µM, the TGI (OVCAR-8 ovarian) was over 100 µM and the TGI (SW-620 colon) was over 100 µM. For the same compound, the TGI (OVCAR-3 ovarian) was over 100 µM, the TGI (COLO 205 colon) was over 100 µM and the TGI (HS 578T breast) was over 100 µM. It also gave a TGI (SR leukemia) of over 100 µM, a TGI (EKVX NSCLC) of over 100 µM and a TGI (BT-549 breast) of over 100 µM. The TGI (TK-10 renal) was over 100 µM, the TGI (HCC-2998 colon) was over 100 µM and the TGI (RXF 393 renal) was over 100 µM. The TGI (ACHN renal) was over 100 µM, the TGI (MDA-MB-231 breast) was over 100 µM and the TGI (NCI/ADR-RES ovarian) was over 100 µM. The TGI (MDA-N) was over 100 µM, the TGI (RPMI-8226 leukemia) was over 100 µM and the TGI (OVCAR-4 ovarian) was over 100 µM. For the same compound, the TGI (KM12 colon) was over 100 µM, the TGI (CAKI-1 renal) was over 100 µM and the TGI (PC-3 prostate) was over 100 µM. The TGI (NCI-H23 lung) was over 100 µM, the TGI (NCI-H226 lung) was over 100 µM and the TGI (M14 melanoma) was over 100 µM.

ClC(Cl)(Cl)C(N1CCN(c2ccccc2)CC1)N1CCN(c2ccccc2)CC1 was tested, and the TGI (U251 CNS) was over 100 µM, the TGI (786-0 renal) was over 100 µM and the TGI (OVCAR-5 ovarian) was over 100 µM. It also gave a TGI (T-47D breast) of over 100 µM, a TGI (DU-145 prostate) of over 100 µM and a TGI (SK-MEL-28 melanoma) of over 100 µM. It also gave a TGI (SNB-19 CNS) of over 100 µM, a TGI (SNB-75 CNS) of over 100 µM and a TGI (UACC-62 melanoma) of over 100 µM. It also gave a TGI (K-562 leukemia) of over 100 µM, a TGI (HOP-62 NSCLC) of over 100 µM and a TGI (HCT-15 colon) of over 100 µM. For the same compound, the TGI (MALME-3M melanoma) was over 100 µM, the TGI (MDA-MB-435) was over 100 µM and the TGI (HCT-116 colon) was over 100 µM. The TGI (LOX IMVI melanoma) was over 100 µM, the TGI (HOP-92 NSCLC) was over 100 µM and the TGI (SN12C renal) was over 100 µM. It also gave a TGI (HT29 colon) of over 100 µM, a TGI (IGROV1 ovarian) of over 100 µM and a TGI (MCF7 breast) of over 100 µM. It also gave a TGI (UACC-257 melanoma) of over 100 µM, a TGI (UO-31 renal) of over 100 µM and a TGI (SK-MEL-2 melanoma) of over 100 µM. For the same compound, the TGI (MOLT-4 leukemia) was over 100 µM, the TGI (SK-MEL-5 melanoma) was over 100 µM and the TGI (A549 NSCLC) was over 100 µM. For the same compound, the TGI (SF-268 CNS) was over 100 µM, the TGI (NCI-H460 lung) was over 100 µM and the TGI (A498 renal) was over 100 µM. For the same compound, the TGI (OVCAR-8 ovarian) was over 100 µM, the TGI (NCI-H522 lung) was over 100 µM and the TGI (COLO 205 colon) was over 100 µM. It also gave a TGI (HS 578T breast) of over 100 µM, a TGI (SR leukemia) of over 100 µM and a TGI (EKVX NSCLC) of over 100 µM. The TGI (BT-549 breast) was over 100 µM, the TGI (TK-10 renal) was over 100 µM and the TGI (RXF 393 renal) was over 100 µM. The TGI (ACHN renal) was over 100 µM, the TGI (MDA-MB-231 breast) was over 100 µM and the TGI (NCI/ADR-RES ovarian) was over 100 µM. For the same compound, the TGI (MDA-N) was over 100 µM, the TGI (RPMI-8226 leukemia) was over 100 µM and the TGI (OVCAR-4 ovarian) was over 100 µM. The TGI (KM12 colon) was over 100 µM, the TGI (CAKI-1 renal) was over 100 µM and the TGI (PC-3 prostate) was over 100 µM. The TGI (NCI-H226 lung) was over 100 µM and the TGI (M14 melanoma) was over 100 µM.

O=c1c(Cc2c(O)ccc3ccccc23)nnc2sc(-c3nn4c(=O)c(Cc5c(O)ccc6ccccc56)nnc4s3)nn12 gave a TGI (U251 CNS) of over 100 µM, a TGI (786-0 renal) of over 100 µM and a TGI (OVCAR-5 ovarian) of over 100 µM. The TGI (T-47D breast) was over 100 µM, the TGI (DU-145 prostate) was over 100 µM and the TGI (SNB-19 CNS) was over 100 µM. The TGI (SNB-75 CNS) was 39.9 µM, the TGI (UACC-62 melanoma) was over 100 µM and the TGI (K-562 leukemia) was over 100 µM. It also gave a TGI (HOP-62 NSCLC) of over 100 µM, a TGI (HCT-15 colon) of over 100 µM and a TGI (MALME-3M melanoma) of over 100 µM. It also gave a TGI (MDA-MB-435) of over 100 µM, a TGI (HL-60(TB) leukemia) of over 100 µM and a TGI (HCT-116 colon) of over 100 µM. It also gave a TGI (LOX IMVI melanoma) of over 100 µM, a TGI (HOP-92 NSCLC) of over 100 µM and a TGI (SN12C renal) of over 100 µM. The TGI (HT29 colon) was over 100 µM, the TGI (IGROV1 ovarian) was over 100 µM and the TGI (MCF7 breast) was over 100 µM. The TGI (UACC-257 melanoma) was over 100 µM, the TGI (UO-31 renal) was over 100 µM and the TGI (SK-MEL-2 melanoma) was 40.3 µM. For the same compound, the TGI (A549 NSCLC) was over 100 µM, the TGI (CCRF-CEM leukemia) was 96.3 µM and the TGI (SF-268 CNS) was over 100 µM. It also gave a TGI (A498 renal) of over 100 µM, a TGI (OVCAR-8 ovarian) of over 100 µM and a TGI (SW-620 colon) of over 100 µM. The TGI (OVCAR-3 ovarian) was over 100 µM, the TGI (HS 578T breast) was over 100 µM and the TGI (SR leukemia) was over 100 µM. The TGI (EKVX NSCLC) was over 100 µM, the TGI (BT-549 breast) was over 100 µM and the TGI (TK-10 renal) was over 100 µM. For the same compound, the TGI (HCC-2998 colon) was over 100 µM, the TGI (RXF 393 renal) was 84.4 µM and the TGI (ACHN renal) was over 100 µM. For the same compound, the TGI (MDA-MB-231 breast) was over 100 µM, the TGI (NCI/ADR-RES ovarian) was over 100 µM and the TGI (MDA-N) was over 100 µM. The TGI (RPMI-8226 leukemia) was over 100 µM, the TGI (OVCAR-4 ovarian) was over 100 µM and the TGI (CAKI-1 renal) was over 100 µM. It also gave a TGI (PC-3 prostate) of over 100 µM, a TGI (NCI-H23 lung) of over 100 µM and a TGI (M14 melanoma) of over 100 µM.
